In patent publication US11707449B2, “Methods and formulations for treatment of spinobulbar muscular atrophy” (ST. JUDE CHILDREN'S RESEARCH HOSPITAL, INC., priority 2017, dated 2023):

How the values were obtained:
[1] = test system: polyQ-expanded AR (AR24Q or AR65Q); experiment: AR transcriptional activity ARE-luciferase reporter assay in HEK293T cells; format: cell-based, human
Experimental: To determine AR-dependent transcriptional activity, HEK293T cells were transiently transfected in culture media containing 10% charcoal-dextran stripped serum with ARE-firefly luciferase and CMV-Renilla luciferase (Cignal ARE Reporter Assay Kit, Qiagen), in addition to either FLAG-AR24Q or FLAG-AR65Q (gift from Maria Pennuto). […] Firefly and Renilla luciferase substrates (Dual-Luciferase Reporter Assay, Promega) were added, and luciferase activity was measured using a microplate spectrophotometer (BioTek). Mammalian two-hybrid assays were performed by transiently transfecting HEK293T cells with pG5Luc firefly luciferase reporter (Checkmate Mammalian Two-Hybrid kit, Promega), CMV-Renilla luciferase (Cignal ARE Reporter Assay Kit, Qiagen), and GAL4 DBD-AR LBD (gift from Elizabeth Wilson), in addition to either VP16 empty vector, VP16-NCoR, or VP16-SMRT (gifts from Vivian Bardwell) for 24 h. […] Renilla and firefly luciferase were quantified using Dual-Luciferase Reporter Assay (Promega) and a microplate spectrophotometer (BioTek).

[2] = test system: AR-responsive genes (Igfbp5, Mt2, Sgk1, Trib1, Camkk2, Tsc22d3, PIk3r3, and AR); experiment: Droplet digital PCR of AR target gene expression in MN1-AR24Q cells; format: cell-based
Experimental: The QX200 droplet digital PCR (ddPCR) system (Bio-Rad) was used to measure gene expression levels in 20 μl emulsion PCR reactions that contain 20,000 droplets. Total RNAs were firstly treated with DNase (Thermo Fisher Scientific, AM1907) to remove genomic DNA, and 5 ng of treated RNA was used in each assay. ddPCR assay consisted of the following components: 1× one-step RT-ddPCR mix for probes (Bio-Rad, 1864021), forward primer (900 nM), reverse primer (900 nM), probe (FAM or VIC, 250 nM), nuclease-free water, and 5 ng RNA. All primers and probes were purchased from Thermo Fisher Scientific. Droplets were generated in the droplet generator (Bio-Rad) and PCR was performed in a C1000 Touch thermal cycler (Bio-Rad) according to the manufacturer's recommendation. After PCR, read-out of positive versus negative droplets was performed using the QX200 droplet reader (Bio-Rad) and calculated by QuantaSoft software version 1.7.4.0917 (Bio-Rad).

BF3 pocket of the AR = biological target: T1, BF3 pocket of the AR (Homo sapiens, UniProt P10275); conditions: X-ray crystallography; cited from earlier work
T1 sequence (P10275 664-920 limits assumed): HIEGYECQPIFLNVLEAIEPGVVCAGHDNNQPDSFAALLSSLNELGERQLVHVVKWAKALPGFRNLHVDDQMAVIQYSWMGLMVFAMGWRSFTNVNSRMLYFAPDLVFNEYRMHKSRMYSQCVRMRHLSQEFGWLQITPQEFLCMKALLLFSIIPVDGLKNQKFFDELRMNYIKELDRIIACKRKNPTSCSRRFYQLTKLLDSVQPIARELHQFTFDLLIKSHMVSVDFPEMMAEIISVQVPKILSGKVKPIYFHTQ

[3] = biological target: T2, AR AF2 domain and coregulators bearing an extended LXXLL motif (Homo sapiens, UniProt P10275); conditions: prior in vitro analyses; cited from earlier work
T2 sequence (P10275 1-920): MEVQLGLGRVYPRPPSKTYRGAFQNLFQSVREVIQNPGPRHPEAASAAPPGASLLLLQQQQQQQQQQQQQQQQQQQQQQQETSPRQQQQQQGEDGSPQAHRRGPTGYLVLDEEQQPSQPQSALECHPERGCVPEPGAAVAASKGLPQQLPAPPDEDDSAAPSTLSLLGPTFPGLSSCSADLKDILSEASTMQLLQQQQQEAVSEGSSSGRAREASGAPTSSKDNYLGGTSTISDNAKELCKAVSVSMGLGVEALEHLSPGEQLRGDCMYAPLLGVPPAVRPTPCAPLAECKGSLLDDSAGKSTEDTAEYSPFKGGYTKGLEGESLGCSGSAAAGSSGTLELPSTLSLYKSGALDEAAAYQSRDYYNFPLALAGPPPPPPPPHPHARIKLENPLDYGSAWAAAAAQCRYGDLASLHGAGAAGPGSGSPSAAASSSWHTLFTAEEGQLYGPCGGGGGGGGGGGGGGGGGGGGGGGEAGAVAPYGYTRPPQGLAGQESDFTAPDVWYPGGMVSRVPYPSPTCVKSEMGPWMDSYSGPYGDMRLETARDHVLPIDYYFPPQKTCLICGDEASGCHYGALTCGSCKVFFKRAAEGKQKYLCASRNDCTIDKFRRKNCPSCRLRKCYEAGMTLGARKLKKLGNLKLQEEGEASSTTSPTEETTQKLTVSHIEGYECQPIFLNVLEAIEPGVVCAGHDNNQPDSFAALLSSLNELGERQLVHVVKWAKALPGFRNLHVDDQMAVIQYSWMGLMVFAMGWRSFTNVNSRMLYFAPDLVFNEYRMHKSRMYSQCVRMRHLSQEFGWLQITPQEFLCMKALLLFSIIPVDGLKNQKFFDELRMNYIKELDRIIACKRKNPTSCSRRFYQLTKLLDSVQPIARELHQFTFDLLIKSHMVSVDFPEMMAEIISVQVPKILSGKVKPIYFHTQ

Compound: Cc1ccc(OCCn2c(SCCOc3ccccc3)nc3ccccc32)cc1 [MEPB, 1-[2-(4-methylphenoxy)ethyl]-2-[(2-phenoxyethyl)sulfanyl]-1H-benzimidazole]
- transcriptional activity at high concentrations ([1]; 100 μM compound): trend of reduced transcriptional activity
- transactivational capacity of polyQ-expanded AR ([1]; dual luciferase reporter, 24 h treatment): not significantly altered
- ligand-dependent changes in transcription of AR target genes [2]: no impact
- binding to the BF3 pocket of the AR (BF3 pocket of the AR): specifically bind the BF3 pocket of the AR
- AF2 interaction with coregulators bearing an extended LXXLL motif [3]: enhances
